Consider six compounds from ChEMBL document CHEMBL5104158, “Synthesis and human monoamine oxidase inhibitory activity of novel C2-, C3- and C4-substituted phthalonitriles” (Bioorg Med Chem Lett, 2022).

For data set [1], the target named is T1, Amine oxidase [flavin-containing] A (Homo sapiens, UniProt P21397).
T1 sequence (P21397 whole entry): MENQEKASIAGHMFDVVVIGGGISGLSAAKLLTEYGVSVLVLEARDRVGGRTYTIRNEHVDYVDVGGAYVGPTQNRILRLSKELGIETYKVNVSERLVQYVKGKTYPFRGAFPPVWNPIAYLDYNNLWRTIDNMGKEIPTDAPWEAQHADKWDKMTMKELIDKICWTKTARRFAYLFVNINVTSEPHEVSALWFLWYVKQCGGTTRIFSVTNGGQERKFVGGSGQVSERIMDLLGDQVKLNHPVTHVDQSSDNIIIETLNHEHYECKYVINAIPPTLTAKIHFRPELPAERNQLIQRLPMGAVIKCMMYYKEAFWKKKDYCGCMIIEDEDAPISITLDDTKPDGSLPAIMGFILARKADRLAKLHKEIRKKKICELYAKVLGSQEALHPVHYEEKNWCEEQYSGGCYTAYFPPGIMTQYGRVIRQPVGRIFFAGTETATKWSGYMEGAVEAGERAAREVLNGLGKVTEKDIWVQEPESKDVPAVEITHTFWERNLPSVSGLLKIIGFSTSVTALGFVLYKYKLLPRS
Nature of the data set: Inhibition of human MAO-A assessed as inhibition of H2O2 production using p-tyramine as substrate.

Data set [2] addresses T2, Amine oxidase [flavin-containing] B (Homo sapiens, UniProt P27338).
T2 sequence (P27338 whole entry): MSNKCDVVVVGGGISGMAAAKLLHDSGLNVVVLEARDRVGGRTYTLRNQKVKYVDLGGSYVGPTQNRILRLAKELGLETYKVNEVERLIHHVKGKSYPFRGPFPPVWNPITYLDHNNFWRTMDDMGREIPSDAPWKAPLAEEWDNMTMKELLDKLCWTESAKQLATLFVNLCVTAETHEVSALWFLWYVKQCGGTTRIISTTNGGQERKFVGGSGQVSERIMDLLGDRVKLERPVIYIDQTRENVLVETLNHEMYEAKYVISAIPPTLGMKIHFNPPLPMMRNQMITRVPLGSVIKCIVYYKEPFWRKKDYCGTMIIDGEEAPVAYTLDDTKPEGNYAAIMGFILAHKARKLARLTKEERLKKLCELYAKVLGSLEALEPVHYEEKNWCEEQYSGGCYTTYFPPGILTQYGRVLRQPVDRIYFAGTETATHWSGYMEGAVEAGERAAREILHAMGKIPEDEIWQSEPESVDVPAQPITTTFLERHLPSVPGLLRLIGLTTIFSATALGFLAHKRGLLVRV
Nature of the data set: Inhibition of human MAO-B assessed as inhibition of H2O2 production using p-tyramine as substrate.

The species entered for a further data set is Homo sapiens. Nature of the data set: Selectivity index, ratio of IC50 for inhibition of human MAO-A to IC50 for inhibition of human MAO-B.
The target in data set [3] is T1, Amine oxidase [flavin-containing] A. Put plainly: Inhibition of human MAO-A assessed as inhibition of H2O2 production using p-tyramine as substrate at 100 uM.
Data set [4] concerns the target T2, Amine oxidase [flavin-containing] B. Nature of the data set: Reversible inhibition of human MAO-B assessed as enzyme residual activity using p-tyramine as substrate measured after dialysis by dialysis method.
The target is the same in data set [5]. Put plainly: Inhibition of human MAO-B assessed as enzyme residual activity using p-tyramine as substrate.
The target is the same in data set [6]. Nature of the data set: Mixed competitive inhibition of human MAO-B using p-tyramine as substrate by Lineweaver-Burk plot analysis.

Broadly, the IC50 is the concentration that gives 50% inhibition. Regarding `COc1cc(S)c(/N=N/c2cccc(C#N)c2C#N)cc1OC`, the IC50 came out at 17800 nM in data set [1] and 80300 nM in data set [2]. Moreover, the Ratio IC50 in the data set filed under Homo sapiens amounted to 0.22.
Consider `COc1ccc(/N=N/c2ccc(C#N)c(C#N)c2)cc1-c1ccccc1`, for which the values for the IC50 in data set [1] and in data set [2] were 890 nM and 1440 nM, respectively. Also, the Ratio IC50 in the data set listed under Homo sapiens stood at 0.62.
As usually defined, the inhibition is the share of the control response that was lost under treatment. As to `CC(=O)Oc1ccc(-c2ccccc2)cc1/N=N/c1ccc(C#N)c(C#N)c1`, in data set [2], the IC50 worked out at 3820 nM. In addition, in the data set listed under Homo sapiens, the Ratio IC50 is more than 26.2. Further, the inhibition at 100 µM in data set [3] came out at 27%.
For the compound `N#Cc1ccc(/N=N/c2ccc(O)c(-c3ccccc3)c2)cc1C#N`, the IC50 in data set [1] was determined as 780 nM; in data set [2], 1120 nM. Further, the Ratio IC50 in the data set listed under Homo sapiens came out at 0.69.
One may read the Ki as the dissociation constant of the complex between target and ligand, obtained from inhibition or displacement. A high value points to weaker binding. With `COc1cc(S)c(/N=N/c2ccc(C#N)c(C#N)c2)cc1OC`, the Activity in data set [4] is reported as 83.3%; in data set [5] it was 34.8%. Besides, the IC50 in data set [1] amounted to 55600 nM; in data set [2] it was 740 nM. In data set [6], this compound came in with a Ki of 77.5 nM. Besides, the Ratio IC50 in the data set listed under Homo sapiens was 75.2.
`N#Cc1ccc(/N=N/c2cc(-c3ccccc3)ccc2O)cc1C#N`: the IC50 in data set [1] came to 29400 nM; in data set [2], 700 nM. The Ratio IC50 in the data set listed under Homo sapiens came out at 42.
